Entries after “also recorded” stand apart in the source; their conditions may differ.
Experiments:
[1] = cited from earlier work
VDAC1 = target: T1, VDAC1 (Mus musculus, UniProt Q60932); test: Mitochondrial calcium imaging (mito-GCaMP2, multiphoton) in mSC of mouse sciatic nerve, nerve crush model; assay type: in vivo; conditions: mito-GCaMP2; VDAC1 silenced or drug given before crush
T1 construct: strongly expressed in mSC mitochondria; from tissue; host or cells: myelinating Schwann cells (mSC) of the sciatic nerve of living mice (wild type; db/db and +/db in A10)
T1 sequence (Q60932 14-296): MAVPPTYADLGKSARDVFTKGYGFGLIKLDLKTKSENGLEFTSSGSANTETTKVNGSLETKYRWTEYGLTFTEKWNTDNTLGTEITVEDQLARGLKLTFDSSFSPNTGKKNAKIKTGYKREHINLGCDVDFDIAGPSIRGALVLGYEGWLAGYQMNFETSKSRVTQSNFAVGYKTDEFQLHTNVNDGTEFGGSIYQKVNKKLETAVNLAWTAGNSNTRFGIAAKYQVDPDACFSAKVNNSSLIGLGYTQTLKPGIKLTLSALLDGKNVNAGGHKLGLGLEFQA
Method: (§1) Mice were anesthetized with isoflurane inhalation and placed under a Stemi2000 microscope (Zeiss). Incision area was shaved and cleaned using betadine solution. After incision, the gluteus superficialis and biceps femoris muscles were separated to reveal the cavity traversed by the sciatic nerve. The nerve was lift out using spatula and a thin glass needle filled with viral solution (8 μl) was introduced into the nerve with a micromanipulator. This solution was injected over 30 min with short pressure pulses using a Picospritzer III (Parker Hannifin) coupled to a pulse generator. After injection, the nerve was replaced into the cavity, the muscles were readjusted, and the wound was closed using clips (for further details see Gonzalez et al., 2014^3).
(§2) TRO19622 drug (Tocris bioscience, Ref. 2906) was diluted in ethanol to 20 mM and then, the solution was diluted in sterile PBS to 20 μM. TRO19622 treatments were realized by 3 mg/kg intraperitoneal (IP) injections of 20 mM solution or by intra sciatic nerve injections of 2 μl of drug solution 2 μM using a Hamilton syringe or a glass needle in sterile conditions 30 minutes before multiphoton image acquisitions or immunohistochemistry and demyelination studies respectively. Methyl jasmonate drug (Sigma-Aldrich, Ref. 392707) was diluted in 1 ml of sterile PBS to 1M or 3M. Methyl jasmonate treatments were realized by intra sciatic nerve injections of 1 μl of drug solution using a glass needle and micromanipulator in sterile conditions following the same virus injections procedure (see in vivo virus injection in the sciatic nerve method) two hours before multiphoton image acquisition. […] All drug concentrations were previously evaluated by Bordet et al, 2007^5; Goldin et al, 2008^6; Sharov et al, 2007^7.
First injected mouse was anesthetized with 5% of isoflurane a 1.5% of oxygen into the anesthesia system box (World Precision Instruments, Ref. EZ-B800) for 5 minutes. Anesthesia controls were realized^8. Then, mouse was placed in anesthesia mask and the incision area was shaved and cleaned with betadine and ethanol 70% solution. Incision was realized using a scalpel and the skin was retracted using forceps in order to expose the gluteus superficialis and bleeps femoris muscles. Next, the connective tissue that connects both muscles was cut and the sciatic nerve was gently lifted out using a spatula. A flexible bridge was slide below sciatic nerve and it was placed into a plastic first pool fixed to the bridge. Mouse was placed under the multiphoton microscope, the bridge was fixed using magnetic brackets to avoid physiological movement and mouse legs were fixed using clippers. Microscope dark box temperature is controlled to 37° C. during all time-lapse imaging. Finally, a second pool was fixed to the first pool using a drop of agarose low melting 3% (Promega, Ref. V2111) in Leibovitz's L15 medium (Gibco Life Technologies) and filled with deionized water to immerse the objectives 20× or 63× (Carl Zeiss Microscopy).
All time-lapse images were obtained with a multiphoton microscope Zeiss LSM 7 MP OPO. Mitochondria motility images were acquired by time-lapse recording of one image every five minutes during five hours at 920 nm. GCaMP2 and SypHer probe images were acquired by time-lapse recording of one image every fifteen minutes during five hours at 985 nm. Images were acquired to constant 1% of laser intensity to 100 msec of acquisition time with 512×512 resolution and 10 images of z-stack of 20 μm. Images were saved in Zeiss .czi format and processed using Image J program. For further details see Gonzalez et al., 201X^8
To characterize mitochondria physiology during the demyelination process we combined two in vivo methods. We used the nerve crush model to reliably induce demyelination in the mouse sciatic nerve and a viral approach^19 allowing the expression of different fluorescent probes selectively into mitochondria of myelinating Schwann cells (mSC) in mouse sciatic nerve.

[2] = system: myelinating Schwann cells; test: mSC demyelination morphology (confocal microscopy) four days after nerve crush; assay type: in vivo, mouse; conditions: intraperitoneal or intranerve injections before and daily after nerve injury
Method: as §1, §2
Finally we also investigated the demyelination using typical defects induced in the cellular morphology of mSC. Nerves expressing control or VDAC1 shRNAs were crushed to induce demyelination and four days later, when demyelination is maximal, we analyzed the morphology of VDAC1-silenced mSC using confocal microscopy as described previously^19. mSC display long homogenous noodle-like morphology with a regular diameter but during demyelination, they acquire a heterogeneous morphology often alterning large structures (myelin ovoids) with thin processes and their extremities split in fine extensions.

diabetic (db/db) mice = test: Sciatic nerve myelin morphometry (toluidine blue, TEM) in diabetic mice; assay type: in vivo, mouse; conditions: diabetic mice treated daily for one month
Method: Sciatic nerves of 20 and 28 weeks old diabetic mice or 16 and 24 weeks old CMT1A rats treated with TRO19622 drug or PBS were fixed for 20 min in situ with 4% PFA and 2.5% glutaraldehyde, in 0.1 M phosphate buffer (pH7.3). Then nerves were removed and postfixed overnight in the same buffer.
After washing 30 min in 0.2M PBS phosphate buffer, the nerves were incubated with 2% osmic acid in 0.1M phosphate buffer for 90 minutes at room temperature. Then, samples were washed in 0.2M PBS phosphate buffer, dehydrated using ethanol gradient solutions and embedded in epoxy resin. For electron microscopy of sciatic nerves, ultrathin (70 nm) cross-sections were cut and stained with 1% uranylacetate solution and lead-citrate and analyzed using a HITACHI H7100 electron microscope at the ‘Centre des Resources en Imagerie Cellulaire’ (CRIC) (for further details see Cotter et al., 2010^9). […] G-ratio was determined using GRatioCalculator plugin of Image J. At less 200 fibers per animal were analysed.
To go further 16-weeks-old diabetic and control mice were treated daily with vehicle or TRO19622 for one month. One day and two months after drug treatment, myelin was evaluated in the sciatic nerve using toluidine blue staining and transmission electron microscopy (TEM) to measure the g-ratio (axon diameter on total myelinated fiber diameter).

[3] = system: phospho-ERK1/2, phospho-p38, phospho-JNK and phospho-c-jun; test: Western blot of demyelination signaling pathways in sciatic nerve after crush or MJ; assay type: in vivo, mouse; conditions: western blot 4 and 12 hours after crush; treated before crush
Method: as §2

CC(C)CCC[C@@H](C)[C@H]1CC[C@H]2[C@@H]3CCC4=C/C(=N\O)CC[C@]4(C)[C@H]3CC[C@]12C [TRO19622, (NZ)—N-[(8S,9S,10R,13R,14S,17R)-10,13-dimethyl-17-[(2R)-6-methylheptan-2-yl]-1,2,6,7,8,9,11,12,14,15,16,17-dodecahydrocyclopenta[a]phenanthren-3-ylidene]hydroxylamine]
safety in humans [1]: safe | mitochondrial calcium release in mSC after nerve crush (VDAC1): able to block calcium release from mitochondria; also recorded: completely abolished; also recorded: blocks mitochondrial calcium release | number of demyelinating cells after nerve injury [2]: strongly reduced | axon number and diameter (diabetic (db/db) mice): No differences | g-ratio (diabetic (db/db) mice; compared to vehicle): significant decrease | increase in phospho-ERK1/2, phospho-p38, phospho-JNK and phospho-c-jun after nerve crush [3]: strongly reduced

Reference: patent US12053480B2, “Methods and pharmaceutical compositions for treating peripheral demyelinating diseases” (INSERM (INSTITUT NATIONAL DE LA SANTE ET DE LA RECHERCHE …, priority 2015, dated 2024)
